# Assays:
# Staphylococcus aureus [1] = test: Antibacterial activity against methicillin-susceptible Staphylococcus aureus ATCC 29213 incubated for overnight measured after 20 to 24 hrs by broth microdilution method; type: functional
# Staphylococcus aureus [2] = test: Antibacterial activity against methicillin-resistant Staphylococcus aureus ATCC 43300 incubated for overnight measured after 20 to 24 hrs by broth microdilution method; type: functional
# Escherichia coli = test: Antibacterial activity against Escherichia coli ATCC 25922 incubated for overnight measured after 20 to 24 hrs by broth microdilution method; type: functional
# Enterococcus faecalis [3] = test: Antibacterial activity against vancomycin-resistant Enterococcus faecalis ATCC 51299 incubated for overnight measured after 20 to 24 hrs by broth microdilution method; type: functional
# Staphylococcus aureus [4] = test: Antibacterial activity against methicillin-resistant Staphylococcus aureus N043 incubated for overnight measured after 20 to 24 hrs by broth microdilution method; type: functional
# Staphylococcus aureus [5] = test: Antibacterial activity against methicillin-resistant Staphylococcus aureus C217 incubated for overnight measured after 20 to 24 hrs by broth microdilution method; type: functional
# Staphylococcus aureus [6] = test: Antibacterial activity against methicillin-resistant Staphylococcus aureus M013 incubated for overnight measured after 20 to 24 hrs by broth microdilution method; type: functional
# Klebsiella pneumoniae = test: Antibacterial activity against Klebsiella pneumoneae ATCC 700603 incubated for overnight measured after 20 to 24 hrs by broth microdilution method; type: functional
# Staphylococcus aureus [7] = test: Antibacterial activity against methicillin-resistant Staphylococcus aureus Y069 incubated for overnight measured after 20 to 24 hrs by broth microdilution method; type: functional
# Pseudomonas aeruginosa = test: Antibacterial activity against Pseudomonas aeruginosa ATCC 27853 incubated for overnight measured after 20 to 24 hrs by broth microdilution method; type: functional
# Acinetobacter baumannii = test: Antibacterial activity against Acinetobacter baumannii ATCC 19606 incubated for overnight measured after 20 to 24 hrs by broth microdilution method; type: functional
# Staphylococcus aureus [8] = test: Antibacterial activity against methicillin-susceptible Staphylococcus aureus M056 incubated for overnight measured after 20 to 24 hrs by broth microdilution method; type: functional
# Staphylococcus aureus [9] = test: Antibacterial activity against methicillin-resistant Staphylococcus aureus L166 incubated for overnight measured after 20 to 24 hrs by broth microdilution method; type: functional
# Staphylococcus aureus [10] = test: Antibacterial activity against vancomycin-intermediate and daptomycin-nonsusceptible methicillin-resistant Staphylococcus aureus Z172 incubated for overnight measured after 20 to 24 hrs by broth microdilution method; type: functional
# Staphylococcus aureus [11] = test: Antibacterial activity against methicillin-resistant Staphylococcus aureus Z234 incubated for overnight measured after 20 to 24 hrs by broth microdilution method; type: functional
# Staphylococcus aureus [12] = test: Antibacterial activity against methicillin-resistant Staphylococcus aureus 4N216 incubated for overnight measured after 20 to 24 hrs by broth microdilution method; type: functional
# Mus musculus [13] = test: Acute toxicity in ICR mouse assessed as increase in body weight at 100 mg/kg, iv measured daily for 2 weeks; type: organism-based; conditions: in vivo, 336 h
# Mus musculus [14] = test: Acute toxicity in ICR mouse assessed as increase in survival at 100 mg/kg, iv measured after 2 weeks; type: organism-based; conditions: in vivo, 336 h
# Enterococcus faecalis [15] = test: Potency index, ratio of […] MIC to compound MIC against vanomycin-resistant Enterococcus faecalis ATCC 51299
# [16] = Half life in ICR mouse plasma at 10 mg/kg, iv by LC-MS/MS analysis; type: ADME, organism-based
# [17] = AUC (0 to 24 hrs) in ICR mouse plasma at 10 mg/kg, iv by LC-MS/MS analysis; type: ADME, organism-based; set-up: dose 10 mg/kg, time < 24 hr, route intravenous
# [18] = Volume of distribution at steady state in ICR mouse plasma at 10 mg/kg, iv by LC-MS/MS analysis; type: ADME, organism-based; conditions: read-out: Vdss
# [19] = Cmax in ICR mouse plasma at 10 mg/kg, iv measured after 20 mins by LC-MS/MS analysis; type: ADME, organism-based; set-up: dose 10 mg/kg, route intravenous
# [20] = Clearance in ICR mouse plasma at 10 mg/kg, iv by LC-MS/MS analysis; type: ADME, organism-based
# Staphylococcus aureus [21] = test: Antibacterial activity against methicillin-resistant Staphylococcus aureus 4N216 infected in ICR mouse assessed as mouse survival rate at 20 mg/kg, iv administered as single dose 30 mins post-infection measured day 7 post infection relative to control; type: functional; conditions: 4N216, iv
# Staphylococcus aureus [22] = test: Potency index, ratio of vanomycin MIC to compound MIC against vancomycin-intermediate and daptomycin-nonsusceptible methicillin-resistant Staphylococcus aureus Z172; type: functional
structure (smiles),measurement,setting,value
OC(CNCCc1c[nH]c2cc(F)ccc12)Cn1c2ccccc2c2ccccc21 (stereo not given),MIC,Staphylococcus aureus [1],4 µg/mL
same,MIC,Staphylococcus aureus [2],4 µg/mL
OC(CNCCc1c[nH]cn1)Cn1c2ccc(Br)cc2c2cc(Br)ccc21 (stereo not given),MIC,Staphylococcus aureus [1],4 µg/mL
same,MIC,Staphylococcus aureus [2],4 µg/mL
OC(CNCc1c[nH]c2cc(F)ccc12)Cn1c2ccc(Br)cc2c2cc(Br)ccc21 (stereo not given),MIC,Staphylococcus aureus [1],2 µg/mL
same,MIC,Staphylococcus aureus [2],2 µg/mL
OC(CNCCc1cccc(F)c1)Cn1ccc2cc(Br)ccc21 (stereo not given),MIC,Staphylococcus aureus [1],16 to 32 µg/mL
same,MIC,Staphylococcus aureus [2],8 µg/mL
OC(CNc1ccc(C(F)(F)F)cc1)Cn1c2ccc(Cl)cc2c2cc(Cl)ccc21 (stereo not given),MIC,Escherichia coli,> 64 µg/mL
same,MIC,Enterococcus faecalis [3],2 µg/mL
same,MIC,Staphylococcus aureus [4],1 µg/mL
same,MIC,Staphylococcus aureus [5],1 µg/mL
same,MIC,Staphylococcus aureus [6],1 µg/mL
same,MIC,Klebsiella pneumoniae,> 64 µg/mL
same,MIC,Staphylococcus aureus [7],1 µg/mL
same,MIC,Pseudomonas aeruginosa,> 64 µg/mL
same,MIC,Acinetobacter baumannii,> 64 µg/mL
same,MIC,Staphylococcus aureus [8],1 µg/mL
same,MIC,Staphylococcus aureus [9],1 µg/mL
same,MIC,Staphylococcus aureus [10],1 µg/mL
same,MIC,Staphylococcus aureus [11],1 µg/mL
same,MIC,Staphylococcus aureus [12],1 µg/mL
O[C@@H](CNCCc1c[nH]c2cc(F)ccc12)Cn1c2ccc(Cl)cc2c2cc(Cl)ccc21,MIC,Staphylococcus aureus [1],0.5 to 1 µg/mL
same,MIC,Staphylococcus aureus [2],0.5 to 1 µg/mL
OC(CNc1nc(Cl)nc2ccccc12)Cn1c2ccc(Br)cc2c2cc(Br)ccc21 (stereo not given),MIC,Staphylococcus aureus [1],> 32 µg/mL
same,MIC,Staphylococcus aureus [2],> 32 µg/mL
OC(CNCCc1c[nH]c2cc(F)ccc12)Cn1c2ccc(Br)cc2c2cc(Br)ccc21 (stereo not given),MIC,Staphylococcus aureus [1],1 µg/mL
same,MIC,Escherichia coli,8 to 16 µg/mL
same,MIC,Enterococcus faecalis [3],2 µg/mL
same,MIC,Staphylococcus aureus [4],1 µg/mL
same,MIC,Staphylococcus aureus [5],1 µg/mL
same,Activity,Mus musculus [13],Non-Toxic
same,MIC,Staphylococcus aureus [6],1 µg/mL
same,MIC,Klebsiella pneumoniae,> 64 µg/mL
same,MIC,Staphylococcus aureus [7],1 µg/mL
same,MIC,Staphylococcus aureus [2],1 µg/mL
same,MIC,Pseudomonas aeruginosa,> 64 µg/mL
same,MIC,Acinetobacter baumannii,16 µg/mL
same,MIC,Staphylococcus aureus [8],1 to 2 µg/mL
same,Activity,Mus musculus [14],Non-Toxic
same,MIC,Staphylococcus aureus [9],1 µg/mL
same,MIC,Staphylococcus aureus [10],2 µg/mL
same,MIC,Staphylococcus aureus [11],1 µg/mL
same,MIC,Staphylococcus aureus [12],1 µg/mL
O[C@H](CNCCc1c[nH]c2cc(F)ccc12)Cn1c2ccc(Cl)cc2c2cc(Cl)ccc21,MIC,Staphylococcus aureus [1],0.5 to 1 µg/mL
same,MIC,Staphylococcus aureus [2],0.5 to 1 µg/mL
O[C@@H](CNCCc1c[nH]c2ccc(Cl)cc12)Cn1c2ccc(Br)cc2c2cc(Br)ccc21,MIC,Staphylococcus aureus [1],1 µg/mL
same,MIC,Staphylococcus aureus [2],1 µg/mL
Oc1ccc(CCNCC(O)Cn2c3ccc(Br)cc3c3cc(Br)ccc32)cc1O (stereo not given),MIC,Staphylococcus aureus [1],16 µg/mL
same,MIC,Staphylococcus aureus [2],16 µg/mL
OC(Cn1cncn1)Cn1c2ccc(Br)cc2c2cc(Br)ccc21 (stereo not given),MIC,Staphylococcus aureus [1],16 µg/mL
same,MIC,Staphylococcus aureus [2],16 µg/mL
O[C@H](CNCCc1c[nH]c2ccc(Cl)cc12)Cn1c2ccc(Br)cc2c2cc(Br)ccc21,MIC,Staphylococcus aureus [1],1 µg/mL
same,MIC,Staphylococcus aureus [2],1 µg/mL
OC(CNc1cc(Cl)nc(Cl)n1)Cn1c2ccc(Br)cc2c2cc(Br)ccc21 (stereo not given),MIC,Staphylococcus aureus [1],> 32 µg/mL
same,MIC,Staphylococcus aureus [2],> 32 µg/mL
OC(CNCCc1cccc(Cl)c1)Cn1c2ccc(Cl)cc2c2cc(Cl)ccc21 (stereo not given),MIC,Escherichia coli,> 64 µg/mL
same,MIC,Enterococcus faecalis [3],2 µg/mL
same,MIC,Staphylococcus aureus [4],4 µg/mL
same,MIC,Staphylococcus aureus [5],4 µg/mL
same,MIC,Staphylococcus aureus [6],4 µg/mL
same,MIC,Klebsiella pneumoniae,> 64 µg/mL
same,MIC,Staphylococcus aureus [7],4 µg/mL
same,MIC,Pseudomonas aeruginosa,> 64 µg/mL
same,MIC,Acinetobacter baumannii,> 64 µg/mL
same,MIC,Staphylococcus aureus [8],1 µg/mL
same,MIC,Staphylococcus aureus [9],4 µg/mL
same,MIC,Staphylococcus aureus [10],4 µg/mL
same,MIC,Staphylococcus aureus [11],4 µg/mL
same,MIC,Staphylococcus aureus [12],0.5 to 1 µg/mL
OC(CNCCc1cccc(F)c1)Cn1c2ccc(Br)cc2c2cc(Br)ccc21 (stereo not given),MIC,Staphylococcus aureus [1],1 to 2 µg/mL
same,MIC,Staphylococcus aureus [2],1 to 2 µg/mL
Oc1ccccc1CCNCC(O)Cn1c2ccc(Br)cc2c2cc(Br)ccc21 (stereo not given),MIC,Staphylococcus aureus [1],1 to 2 µg/mL
same,MIC,Staphylococcus aureus [2],1 to 2 µg/mL
OC(CNCCc1c[nH]c2ccc(Cl)cc12)Cn1c2ccc(Br)cc2c2cc(Br)ccc21 (racemic),MIC,Staphylococcus aureus [1],1 µg/mL
same,MIC,Escherichia coli,> 64 µg/mL
same,MIC,Enterococcus faecalis [3],1 µg/mL
same,Ratio,Enterococcus faecalis [15],4 - 18
same,MIC,Staphylococcus aureus [4],1 µg/mL
same,MIC,Staphylococcus aureus [5],1 µg/mL
same,MIC,Staphylococcus aureus [6],1 µg/mL
same,MIC,Klebsiella pneumoniae,> 64 µg/mL
same,MIC,Staphylococcus aureus [7],1 µg/mL
same,MIC,Staphylococcus aureus [2],1 µg/mL
same,MIC,Pseudomonas aeruginosa,> 64 µg/mL
same,MIC,Acinetobacter baumannii,> 64 µg/mL
same,MIC,Staphylococcus aureus [8],1 µg/mL
same,MIC,Staphylococcus aureus [9],1 µg/mL
same,MIC,Staphylococcus aureus [10],2 µg/mL
same,MIC,Staphylococcus aureus [11],1 µg/mL
same,MIC,Staphylococcus aureus [12],1 µg/mL
OC(CNCCc1c[nH]c2cc(F)ccc12)Cn1c2ccc(Cl)cc2c2cc(Cl)ccc21 (racemic),MIC,Staphylococcus aureus [1],0.5 to 1 µg/mL
same,MIC,Escherichia coli,4 µg/mL
same,MIC,Enterococcus faecalis [3],1 µg/mL
same,Ratio,Enterococcus faecalis [15],4 - 18
same,MIC,Staphylococcus aureus [4],1 µg/mL
same,half-life,[16],10.3 h
same,MIC,Staphylococcus aureus [5],1 µg/mL
same,Activity,Mus musculus [13],Non-Toxic
same,MIC,Staphylococcus aureus [6],1 µg/mL
same,MIC,Klebsiella pneumoniae,> 64 µg/mL
same,AUC(0-t) at 24 h,[17],20500 ng·h/mL
same,Vd,[18],4.9 L/kg
same,Cmax,[19],29700 ng/mL
same,MIC,Staphylococcus aureus [7],1 µg/mL
same,MIC,Staphylococcus aureus [2],0.5 to 1 µg/mL
same,MIC,Pseudomonas aeruginosa,> 64 µg/mL
same,MIC,Acinetobacter baumannii,8 µg/mL
same,MIC,Staphylococcus aureus [8],1 µg/mL
same,clearance,[20],6.9 mL/min/kg
same,Activity,Mus musculus [14],Non-Toxic
same,survival at 20 mg/kg,Staphylococcus aureus [21],75%
same,MIC,Staphylococcus aureus [9],1 µg/mL
same,MIC,Staphylococcus aureus [10],1 µg/mL
same,MIC,Staphylococcus aureus [11],1 µg/mL
same,MIC,Staphylococcus aureus [12],0.5 µg/mL
same,Ratio,Staphylococcus aureus [22],4 - 16
CN[C@H](CC(C)C)C(=O)N[C@H]1C(=O)N[C@@H](CC(N)=O)C(=O)N[C@H]2C(=O)N[C@H]3C(=O)N[C@H](C(=O)N[C@H](C(=O)O)c4cc(O)cc(O)c4-c4cc3ccc4O)[C@H](O)c3ccc(c(Cl)c3)Oc3cc2cc(c3O[C@@H]2O[C@H](CO)[C@@H](O)[C@H](O)[C@H]2O[C@H]2C[C@](C)(N)[C@H](O)[C@H](C)O2)Oc2ccc(cc2Cl)[C@H]1O [VANCOMYCIN],MIC,Enterococcus faecalis [3],8 to 16 µg/mL
same,half-life,[16],0.6 h
same,MIC,Staphylococcus aureus [6],≤ 0.5 µg/mL
same,AUC(0-t) at 24 h,[17],13700 ng·h/mL
same,Vd,[18],0.3 L/kg
same,Cmax,[19],58500 ng/mL
same,clearance,[20],11.7 mL/min/kg
same,survival at 20 mg/kg,Staphylococcus aureus [21],100%

# Source: ChEMBL document CHEMBL3868635, “Bromomethylthioindole Inspired Carbazole Hybrids as Promising Class of Anti-MRSA Agents” (ACS Med Chem Lett, 2016)
